Test results reported in patent US6093692A, “Method and compositions for lipidization of hydrophilic molecules” (The University of Southern California, priority 1997, dated 2000).
Each block holds one molecule with its values, some of them ahead of it.

Experiments:
[1] = test system: Brattleboro rats with hereditary hypothalamic diabetes insipidus; assay: Anti-diuretic effects in rats with hereditary hypothalamic diabetes insipidus, subcutaneous; type: in vivo; conditions: s.c., 3.3 μg/kg in 10% Liposyn II, FIG. 7
Protocol: Brattleboro rats, which carry the hereditary disease of hypothalamic diabetes insipidus, were used to compare the effects of DP and DP-P for alleviating the disease symptoms, i.e., polyuria and polydipsia. A group of three Brattleboro rats were kept separately in three metabolic cages. Their body weight, water intake and urine output were measured every day. DP and DP-P were dissolved in 10% Liposyn® II (Abbott Laboratories, Abbott Park, Ill., USA) and injected subcutaneously (s.c.) to each rat at doses ranging from 0.02 to 20 μg/kg. […] On the other hand, DP-P at the identical dose could maintain the rats symptom-free for more than 3 days, as indicated by the reduction of both water intake and urine output without significant change of the body weight.
In order to evaluate the dose-dependent responses to DP and DP-P in Battleboro rats, the effectiveness of anti-diuretic activity was defined as the length of time that a more than 50% reduction of the urine volume can be maintained in the treated animals.

[2] = test system: mouse fibroblasts L929 cells; assay: Cellular uptake of HRPssPal; type: cell-based; conditions: 30 μg/ml, serum-free medium, 1 hour, 37° C.
Protocol: Confluent monolayers of mouse fibroblasts L929 cells in 6-well culture cluster plates were incubated in serum-free medium with 30 μg/ml of HRP, either as the native form or as the palmitic acid conjugate (HRPssPal). After 1 hour at 37° C., monolayers were washed three times with PBS and then dissolved in 1 ml of 0.05% of Triton-X100. Cell-associated HRP was determined by measuring the enzymatic activity in each cell extract and the results converted to ng HRP per cell monolayer. […] Therefore, a 30-fold increase in cell uptake was achieved by modification of HRP with Pal-PDC.

[3] = Plasma calcitonin and calcium after subcutaneous administration; type: in vivo, mice; conditions: s.c., 125 μg/kg in 10% Liposyn II
Protocol: Both CT and CT-P were iodinated with ^125 I using chloramine T method. ^125 I-CT or ^125 I-CT-P was injected s.c. into mice at a dose of 125 μg/kg in 10% Liposyn® II (Abbott). Groups of three mice were sacrificed at different time points. The levels of calcium in the blood samples were determined by using a commercial calcium diagnostic kit (Sigma Chemical Co.). The plasma from each mouse was isolated and treated with 5% trichloroacetic acid (TCA) in an ice bath. The radioactivity in the hs TCA precipitates were considered as the intact CT in the plasma.

[4] = Gastro-intestinal absorption and calcium-lowering effect after oral administration; type: in vivo, CF mice; conditions: 100 μg/kg in PBS, one hour, CT-RIA, N = 3, S.D.
Protocol: CT and CT-P were orally administered to CF mice using a gavaging needle at a dose of 100 μg/kg in PBS. The mice, three of each group, were sacrificed 1 hour after the treatment, and the plasma was isolated from their blood. The levels of CT and calcium were measured by using commercial CT-RIA (Phoenix) and calcium diagnostic (Sigma Chemical Co.) kits, respectively. […] Furthermore, the level of calcium in plasma at 1 hour was lower in CT-P treated mice than that in CT treated mice, which was consistent with the finding in CT levels. Because the crossreactivity of CT-P to the anti-CT antibody is only about 10%, the actual concentration of total CT in the plasma of CT-P treated mice could be even higher than the value presented in Table 5.

Caco-2 monolayers = type: in vitro ADME, Human
Protocol: Suspended Caco-2 cells in 1.5 ml of medium were seeded into the apical chamber of the transwells at a density of 0.5 million cells per insert. 2.5 ml of the medium was then added to the basal chambers of each transwell. The cells were allowed to attach for 2 days without disturbance and were then fed every other day until the experiments were performed. The cells were maintained for approximately 14-20 days prior to the experiments and were fed 24 hr before each experiment. The cell monolayers developed a transepithelial electrical resistance (TEER) of approximately 500-600 .OMEGA.) cm^2 within one week of the seeding and maintained this resistance for up to 21 days post-seeding.
Confluent cell monolayers, 2 to 3 weeks old, and having a TEER value of approximately 500 .OMEGA. cm^2, were first incubated with Dulbecco's MEM containing 1% of FBS for 30 min at 37° C. […] At predetermined times, the entire basal chamber medium (2.5 ml) from each transwell was removed and counted for radioactivity using a gamma counter. […] After the 24 hr samples were taken, the cell monolayers were rinsed three times with ice-cold PBS, cut out of the inserts, and counted for accumulated radioactivity using a gamma counter. […]
BBI was modified with 2 or 4 palmitic acids, and the transport was determined in transwells. […]

Molecule: NC(=O)CC[C@@H]1NC(=O)[C@H](Cc2ccccc2)NC(=O)[C@H](Cc2ccc(O)cc2)NC(=O)CCSSC[C@@H](C(=O)N2CCC[C@H]2C(=O)N[C@H](CCCN=C(N)N)C(=O)NCC(N)=O)NC(=O)[C@H](CC(N)=O)NC1=O [DP, Desmopressin]
Time rats maintained symptom-free [1]: less than one

Molecule: horseradish peroxidase [HRP]
Cellular uptake [2]: 7 ng HRP per cell monolayer

Plasma clearance [3]: rapid plasma clearance | Plasma calcitonin concentration, CT [4]: 9.2 ± 0.7 pg/0.1 ml plasma
Molecule: CC(C)C[C@H](NC(=O)[C@H](CCCCN)NC(=O)CNC(=O)[C@H](CC(C)C)NC(=O)[C@@H](NC(=O)[C@@H]1CSSC[C@H](N)C(=O)N[C@@H](CO)C(=O)N[C@@H](CC(N)=O)C(=O)N[C@@H](CC(C)C)C(=O)N[C@@H](CO)C(=O)N[C@@H]([C@@H](C)O)C(=O)N1)C(C)C)C(=O)N[C@@H](CO)C(=O)N[C@@H](CCC(N)=O)C(=O)N[C@@H](CCC(=O)O)C(=O)N[C@@H](CC(C)C)C(=O)N[C@@H](Cc1c[nH]cn1)C(=O)N[C@@H](CCCCN)C(=O)N[C@@H](CC(C)C)C(=O)N[C@@H](CCC(N)=O)C(=O)N[C@H](C(=O)N[C@@H](Cc1ccc(O)cc1)C(=O)N1CCC[C@H]1C(=O)N[C@@H](CCCNC(=N)N)C(=O)N[C@H](C(=O)N[C@@H](CC(N)=O)C(=O)N[C@H](C(=O)NCC(=O)N[C@@H](CO)C(=O)NCC(=O)N[C@H](C(=O)N1CCC[C@H]1C(N)=O)[C@@H](C)O)[C@@H](C)O)[C@@H](C)O)[C@@H](C)O [CT, Salmon calcitonin]

B1: BBIssPal(4): BBI modified with 4 palmitic acids (conjugate, UniProt P01055 40-110, looked up)
Bowman-Birk type proteinase …: DDESSKPCCDQCACTKSNPPQCRCSDMRLNSCHSACKSCICALSYPAQCFCVDITDFCYEPCKPSEDDKEN
modifications: 4 palmityl disulfide groups
notes: BBI modified with 4 palmitic acids
Internalization of the conjugates into the cells (rank) (Caco-2 monolayers): highest uptake into the cells
